Measurements as given in US11084895B2, “Modified polytetrafluoroethylene fine powder and uniaxially stretched porous body” (DAIKIN INDUSTRIES, LTD., priority 2013, dated 2021).

Assay: LogPOW, octanol-water partition coefficient calculated from HPLC elution time via calibration curve
Type: physicochemical
Details: partition coefficient between 1-octanol and water, ODS-120T column, acetonitrile/0.6 mass % HClO4 aq. 1/1, 40° C.
Protocol: The LogPOW value is a partition coefficient between 1-octanol and water, and is represented by LogP, wherein P represents the ratio of (fluorosurfactant concentration in octanol)/(fluorosurfactant concentration in water) when an octanol/water (1:1) liquid mixture containing a fluorosurfactant is phase-separated.
The octanol-water partition coefficient represented by LogPOW is calculated as follows. HPLC is performed on standard substances (heptanoic acid, octanoic acid, nonanoic acid, and decanoic acid) each having a known octanol-water partition coefficient using TOSOH ODS-120T column (ϕ4.6 mm×250 mm) as a column and acetonitrile/0.6 mass % HClO4 aqueous solution=1/1 (vol/vol %) as an eluent at a flow rate of 1.0 ml/min, a sample amount of 300 μL, and a column temperature of 40° C., with detection light UV 210 nm. A calibration curve between the respective elution times and the known octanol-water partition coefficients is drawn, and the LogPOW value is calculated from the elution time of the sample liquid in HPLC based on the calibration curve.

SMILES | chromatographic logP | LogPOW value
O=C(O)C(F)(F)C(F)(F)C(F)(F)C(F)(F)C(F)(F)C(F)(F)C(F)(F)F [PFOA, ammonium perfluorooctanoate] | 3.5 | –
N.O=C(O)C(F)(OC(F)(F)C(F)(OC(F)(F)F)C(F)(F)F)C(F)(F)F (centres unmarked) [CF3OCF(CF3)CF2OCF(CF3)COONH4] | – | ≤ 3.4
